Reference: the NIST ThermoML archive (doi:10.1016/j.jct.2019.06.022)

Experiment: mn = molality of the nth substance listed, in mol/kg
Conditions: 298.15 K, 101.3 kPa, Liquid; for binary diffusion coefficient: Taylor dispersion method; for mass density: Vibrating tube method

O=C([O-])c1ccccc1O.[Na+] [sodium salicylate] + O
Conditions	binary diffusion coefficient [m2/s]	mass density [kg/m3]
m1 = 0.001004	1.06e-09	996.965
m1 = 0.002502	1.05e-09	997.145
m1 = 0.005026	1.04e-09	997.318
m1 = 0.007532	1.02e-09	997.434
m1 = 0.01004	1.02e-09	997.909
m1 = 0.05045	–	999.801
m1 = 0.1014	–	1003.01
